Test results as given in paper PMC9853512 (RSC Advances, 2023).
Values after ≈ are worked out from the molar mass of the structure shown.

What was measured:
Assay type in all cases: cell-based
[1] = test system: S. aureus strain ATCC 29213; experiment: MIC, two-fold microdilution assay, S. aureus; details: Staphylococcus aureus, ATCC29213, 18 h, read-out: MIC S. Aureus ATCC 29213
[2] = test system: E. coli strain ATCC 25922; experiment: MIC, two-fold microdilution assay, E. coli; details: Escherichia coli, ATCC25922, 18 h, read-out: MIC E. coli ATCC 25922
[3] = test system: C. albicans strain ATCC14053; experiment: MIC, two-fold microdilution assay, C. albicans; details: Candida albicans, ATCC14053, 18 h, read-out: MIC C. Albicans ATCC14053
H. pylori strain SS1 = experiment: MIC, two-fold microdilution assay, H. pylori; details: Helicobacter pylori, SS1, 48 h, read-out: MIC H. pylori SS1

MIC [1] | MIC [2] | MIC [3] | MIC (H. pylori strain SS1) | Compound
3.12 µg/mL (≈ 13.9 µM) | 0.391 µg/mL (≈ 1.73 µM) | > 50 µg/mL | < 0.0976 µg/mL | O=C1OCCN1N=Cc1ccc([N+](=O)[O-])o1 [FZD, 3-(5-nitrofurfurylideneamino)-2-oxazolidinone]
25 µg/mL (≈ 105 µM) | 12.5 µg/mL (≈ 52.5 µM) | > 50 µg/mL |  | O=C1CN(N=Cc2ccc([N+](=O)[O-])o2)C(=O)N1 [NFT, 1-(((5-nitro-2-furanyl)methylene)amino)-2,4-imidazolidinedione]
